Data from US20200069664A1, “METHODS FOR TREATING INFECTION” (Salix Pharmaceuticals, Ltd, priority 2010, published 2020).
Values after ≈ are worked out from the molar mass of the structure shown. Like-named read-outs stand apart in the source and are kept apart here.

Columns and labels:
EAEC strain O42 = assay type: cell-based, E. coli
EAEC = assay: Effect of dialyzed supernatants of treated HEp-2 cells on EAEC adherence; assay type: cell-based, E. coli; settings: HEp-2 treated 24 h with 64 mg/ml (so in the source); chambered slides with or without HEp-2 cells, 3 h
Protocol: Supernatant dialysis. HEp-2 cells were cultured in T-175 flasks as described above. […] After 24 h, the medium was collected, loaded into regenerated cellulose dialysis tubing (cutoff, 6 to 8 kDa; Spectra/Por, Rancho Domiguez, Calif.), and dialyzed against 4 liters of PBS changed four times. Each dialysis step lasted at least 6 h and was carried out at 4° C. Dialyzed supernatants were either used immediately in adherence assays or stored at −20° C. until use.
The effect of supernatants on EAEC adherence was determined by mixing EAEC with the dialyzed media from the different antibiotic (or control) treatment groups and adding the bacteria to HEp-2 cells cultured in chambered slides or to chambered slides with no HEp-2 cells. Adherence was visualized microscopically as described above.

HEp-2 cells = assay: Cytokine array of supernatants of treated HEp-2 cells; settings: 64 μg/ml, 24 h; Panomics array of 36 cytokines
C difficile isolates = assay: In vitro susceptibility of C difficile isolates (agar dilution for rifaximin, Etest for rifampin)

CO[C@H]1/C=C/O[C@@]2(C)Oc3c(C)c(O)c4c(O)c(c(/C=N/N5CCN(C)CC5)c(O)c4c3C2=O)NC(=O)/C(C)=C\C=C\[C@H](C)[C@H](O)[C@@H](C)[C@@H](O)[C@@H](C)[C@H](OC(C)=O)[C@@H]1C [Rifampin, rifampin] was tested, and the “EAEC O42 adherence to pretreated HEp-2 cells (microscopy, stacked-brick pattern)” value (EAEC strain O42) was “adhered in the traditional stacked-brick formation”, the “Adherence of EAEC mixed with dialyzed supernatants from treated HEp-2 cells” value (EAEC) was “adhered to chambers independently of the presence of HEp-2 cells” and the “Cytokines detected in supernatants of treated HEp-2 cells” value (HEp-2 cells) was “same profile, except that MIPS was not detected”. For the same compound, the MIC50 (C difficile isolates) was under 0.002 µg/mL, the MIC90 (C difficile isolates) was 4 µg/mL (≈ 4.86 µM) and the MIC50 (C difficile isolates; 359 C difficile isolates) was under 0.002 µg/mL. The “Resistant isolates, percent of 359” value (C difficile isolates; resistance = MIC≥32 μg/mL, for rifaximin b194 says 'rifaximin alone') was 8%.
